Reference: publication PMC4649711, “In1-ghrelin splicing variant is overexpressed in pituitary adenomas and increases their aggressive features” (Scientific Reports, 2015)
Values joined by “and” are separate entries in the source; they are usually repeats but may differ in a detail not shown here. Equal values may be shown once. “Also recorded” adds a separate entry of the source.

Columns and labels:
Assay type in all cases: cell-based, human
ACTH-omas = experiment: cell viability of ACTH-oma primary cultures, peptide treatment; conditions: 100 nM, 24 h, alamar-blue, n = 2–8
Experimental: (§1) Pituitary adenoma specimens were dispersed into single cells by enzymatic and mechanical disruption and cultured onto tissue culture plates in serum containing medium, as previously described. Briefly, pituitary samples were resected by endoscopic transsphenoidal surgery and transferred to sterile cold (4°C) culture medium (S-MEM, Gibco, Madrid, Spain) supplemented with 0.1% BSA, 0.01% L-glutamine, 1% antibiotic-antimycotic solution, and 2.5% HEPES. Samples were minced under sterile conditions into 1–2 mm^3 pieces. Some pieces were stored at −80°C for posterior RNA isolation and, when possible, the remaining tissue samples were washed and incubated in 30 mL S-MEM medium supplemented 0.3% trypsin (Beckson, Dickinson and Company, Sparks, MD, USA) in a spinner flask (Bellco Glass, Vineland, NJ, USA) for 2 h of gentle shaking at 37°C and then, incubation was continued for another 5 min in presence of 1 mg of DNAse I (Roche, Mannheim, Germany). Dispersed cells were decanted by centrifugation and then, by repeated aspiration into a smoothtipped glass Pasteur pipette. […]
As previously reported, cell viability was estimated using alamar-blue reagent (10,000 cells/well-plate; Biosource International, Camarillo, CA, USA)[30][50][52]. […] Reduction of alamar-blue reagent was quantified exciting at 560 nm and reading at 590 nm using the FlexStation III system (Molecular Devices, Sunnyvale, CA, USA). […]

p-ERK1/2 = experiment: ERK1/2 phosphorylation by western blot in GH-omas; conditions: 100 nM, 8 minutes, p-ERK1/2/total ERK1/2 vs vehicle (100%), n = 4
Experimental: as §1, with “pipette. Cells suspensions were washed once in 4.5 g/L glucose containing DMEM medium (Gibco, Madrid, Spain) supplemented with 0.1% BSA, 0.01% L-glutamine, 1% antibiotic-antimycotic solution, and 2.5% HEPES.” for “pipette.”

GH-omas = experiment: GH secretion from GH-oma primary cultures; conditions: 100 nM; 4 h and 24 h; ELISA; % of vehicle; n = 3–7
Experimental: Pituitary adenoma specimens were dispersed into single cells by enzymatic and mechanical disruption and cultured onto tissue culture plates in serum containing medium, as previously described. Briefly, pituitary samples were resected by endoscopic transsphenoidal surgery and transferred to sterile cold (4°C) culture medium (S-MEM, Gibco, Madrid, Spain) supplemented with 0.1% BSA, 0.01% L-glutamine, 1% antibiotic-antimycotic solution, and 2.5% HEPES. Samples were minced under sterile conditions into 1–2 mm^3 pieces. […]
To examine the effects of ghrelin system components (4- and/or 24 h-incubation) on pituitary hormone release from primary pituitary adenoma and/or AtT-20 cell line, 100,000–200,000 cell/well were used. As previously reported, hormone concentrations were measured in the culture media derived from human samples according to the pituitary adenoma type using commercial ELISAs [growth hormone, GH; adrenocorticotropin, ACTH; and prolactin, PRL (reference numbers: EIA-3552, EIA-3647 and EIA-1291, respectively; DRG, Mountainside, NJ, USA)] following the manufacturer's instructions. […]

[1] = system: NFPA (tumoral pituitary cells); experiment: free cytosolic calcium kinetics ([Ca^2+]i), NFPA cells
Experimental: as §1
As previously reported, changes in [Ca^2+]i in single cells were measured using fura-2AM (50,000 cells/coverslip; Molecular Probes, Eugene, OR)[23][30]. […] Cells were examined for changes in [Ca^2+]i after the appropriate treatment (native ghrelin, In1-19 or In1-40) using a 40× objective with Immersion Oil Type NF (Nikon, Tokyo, Japan) while exposed to alternating 340–380 nm light beams, and the intensity of light emission at 505 nm was measured every 5 seconds using MetaFluor Software (Imaging Corp., West Chester, PA, USA). […] Changes in [Ca^2+]i in CHO-K1 cell line expressing recombinant GHSR1a or GHSR1b receptor were measured using Calcium 4 Explorer Kit (Molecular Devices, Sunnyvale, CA, USA). […] Fluorescent signals were then monitored using the FLIPR Tetra (Molecular Devices, Sunnyvale, CA, USA) during which cells were stimulated with compounds. Dose-response curves were analyzed using GraphPad Prism v5.04 (La Jolla, CA, USA).

How did the cell viability (ACTH-omas) turn out when `CCCCCCCC(=O)OC[C@H](NC(=O)[C@H](CO)NC(=O)CN)C(=O)N[C@@H](Cc1ccccc1)C(=O)N[C@@H](CC(C)C)C(=O)N[C@@H](CO)C(=O)N1CCC[C@H]1C(=O)N[C@@H](CCC(=O)O)C(=O)N[C@@H](Cc1c[nH]cn1)C(=O)N[C@@H](CCC(N)=O)C(=O)N[C@@H](CCCNC(=N)N)C(=O)N[C@H](C(=O)N[C@@H](CCC(N)=O)C(=O)N[C@@H](CCC(N)=O)C(=O)N[C@@H](CCCNC(=N)N)C(=O)N[C@@H](CCCCN)C(=O)N[C@@H](CCC(=O)O)C(=O)N[C@@H](CO)C(=O)N[C@@H](CCCCN)C(=O)N[C@@H](CCCCN)C(=O)N1CCC[C@H]1C(=O)N1CCC[C@H]1C(=O)N[C@@H](C)C(=O)N[C@@H](CCCCN)C(=O)N[C@@H](CC(C)C)C(=O)N[C@@H](CCC(N)=O)C(=O)N1CCC[C@H]1C(=O)N[C@@H](CCCNC(=N)N)C(=O)O)C(C)C` [AG] was run?
The cell viability was “increased cell viability”.

What about the p-ERK1/2 levels (p-ERK1/2) of the same compound?
The p-ERK1/2 levels was “clear increase; also recorded: increased both, p-ERK1/2 as well as p-Akt, levels”.

What about the GH secretion (GH-omas) of the same compound?
The GH secretion was “similarly and significantly, increased GH secretion; also recorded: promoted GH secretion”.

What about the “% cell resp.” value ([1]; NFPA, proportion of responsive cells, fura-2AM single-cell imaging) of the same compound?
The value was 29% and 29.4%.

And the “# samples” value ([1]; NFPA, responsive/tested samples, fura-2AM, 408 / 367 / 29 cells analyzed for AG / In1-19 / In1-40, peptides 100 nM (abstract))?
The value was 9/15.

And the “[Ca^2+]i response (in words)” value ([1]; NFPAs, fura-2AM)?
The value was “a subset of NFPA cells is responsive”.
